Experimental data reported in patent US20230399317A1, “COMPOUNDS AND METHODS FOR THE TREATMENT OF OCULAR DISORDERS” (Azura Ophthalmics Ltd., priority 2020, published 2023).

Assay: Rabbit Cornea Homogenate stability (esterase) assay, Method 2
Format: in vitro ADME
Conditions: for Esterase % Lifitegrast formation at 45 min: 37° C., Method 2 (DPBS pH 7.4); for API Formation rate (%/min): Method 2
Method: Determining Rabbit Cornea Homogenate stability of the test compounds was performed using HPLC-MS or UPLC-MS. The assay was performed at two concentrations of Rabbit Cornea Homogenate (0.15 mg/mL and 0.45 mg/mL total protein) so that any hydrolysis observed can be assigned as esterase dependent or not.
Three to five rabbit corneas (e.g. New Zealand Whites (NZW) or Dutch Belted (DB)) of approx. 50 mg each were sliced and scraped with a scalpel and tweezers until reduced to small (1-3 mm), thin pieces. These were transferred into a glass vial containing approximately 2 mL of cold DPBS pH 7.4 buffer.
Sample was cooled intermittently on ice and shear homogenized for 3 minutes, then centrifuged for 3 min at 13,000 g. The supernatant was pipetted off into a vial, and total protein concentration determined at 280 nm. Sample was stored at −78° C.
10 mM Compound DMSO stocks were diluted to 10 μM in a glass vial: 10 μL of 10 mM Compound stock was added to 9,990 μL DPBS, pH 7.4 buffer. Esterase homogenate was diluted to 300 ng/μL and 900 ng/μL in DPBS. […]
A heater shaker was set to 37° C. Into a suitable 96 well plate (Run Plate), 80 μL of 300 or 900 ng/μL esterase homogenate was pipetted into two rows as compounds were analyzed in duplicate (0 min, 2 min, 5 min, 10 min, 20 min and 45 min). The plate was sealed and then warmed at 37° C. for 5 min.
Two 96 shallow-well plates were placed on ice (Kill Plates). To these, 180 μL of 60:40 MeCN-H2O+0.1% acetic acid were added to required rows. The plates were sealed to minimise evaporation.
To both rows of the Run Plate, 80 μL of 10 μM compound solution was added. At the appropriate time point, 20 μL of the assay mixture was added to the matching kill plate well containing 180 μL of 60:40 cold MeCN-H2O+0.1% acetic acid. For lipoic acid analysis, samples were analysed as soon as practicable by LCMS (Waters Xevo TQ-S). For parent conjugate and parent analysis the samples were diluted further 1 in 10: 20 μL supernatant was added to 180 μL of 50:50 MeCN—H2O.
Parent conjugate, parent and keratolytic concentrations were determined against appropriate standard response curves and the half-life (T½) of the parent conjugate was calculated using the peak area or the measured concentration of the parent conjugate at each time point in the linear region of the log-linear plot.

[1] = Cornea Homogenate Conc 0.15 mg/mL
[2] = Cornea Homogenate Conc 0.45 mg/mL

SMILES | Esterase % Lifitegrast formation at 45 min [1] | API Formation rate (%/min) [1] | Esterase % Lifitegrast formation at 45 min [2] | API Formation rate (%/min) [2]
CC(=O)NC(CSSCC(NC(C)=O)C(=O)OC(C)OC(=O)[C@H](Cc1cccc(S(C)(=O)=O)c1)NC(=O)c1c(Cl)cc2c(c1Cl)CCN(C(=O)c1ccc3ccoc3c1)C2)C(=O)O (stereo partly drawn) [Compound 25] | A (percent active pharmaceutical ingredient (API) formation <25%) | a (API formation rate <0.5%/min) | A (percent active pharmaceutical ingredient (API) formation <25%) | a (API formation rate <0.5%/min)
CC(=O)N1C(C(=O)OC(C)OC(=O)[C@H](Cc2cccc(S(C)(=O)=O)c2)NC(=O)c2c(Cl)cc3c(c2Cl)CCN(C(=O)c2ccc4ccoc4c2)C3)CSC1(C)C (stereo partly drawn) [Compound 26] | A (percent active pharmaceutical ingredient (API) formation <25%) | a (API formation rate <0.5%/min) | A (percent active pharmaceutical ingredient (API) formation <25%) | a (API formation rate <0.5%/min)
CC(=O)N[C@@H](CS)C(=O)OCCOCCOCCOCCOC(=O)OC(C)OC(=O)[C@H](Cc1cccc(S(C)(=O)=O)c1)NC(=O)c1c(Cl)cc2c(c1Cl)CCN(C(=O)c1ccc3ccoc3c1)C2 (stereo partly drawn) [Compound 29] | A (percent active pharmaceutical ingredient (API) formation <25%) | a (API formation rate <0.5%/min) | A (percent active pharmaceutical ingredient (API) formation <25%) | a (API formation rate <0.5%/min)
CC(=O)N[C@@H](CS)C(=O)OCCOCCOCCOCCOCCOCCOCCOCCOC(=O)OC(C)OC(=O)[C@H](Cc1cccc(S(C)(=O)=O)c1)NC(=O)c1c(Cl)cc2c(c1Cl)CCN(C(=O)c1ccc3ccoc3c1)C2 (stereo partly drawn) [Compound 30] | A (percent active pharmaceutical ingredient (API) formation <25%) | a (API formation rate <0.5%/min) | A (percent active pharmaceutical ingredient (API) formation <25%) | a (API formation rate <0.5%/min)
CS(=O)(=O)c1cccc(C[C@H](NC(=O)c2c(Cl)cc3c(c2Cl)CCN(C(=O)c2ccc4ccoc4c2)C3)C(=O)OCCO)c1 [Compound 32] | A (percent active pharmaceutical ingredient (API) formation <25%) | a (API formation rate <0.5%/min) | B (percent API formation 25% to 50%) | b (API formation rate 0.5-1.0%/min)
CS(=O)(=O)c1cccc(C[C@H](NC(=O)c2c(Cl)cc3c(c2Cl)CCN(C(=O)c2ccc4ccoc4c2)C3)C(=O)OCCCO)c1 [Compound 33] | B (percent API formation 25% to 50%) | b (API formation rate 0.5-1.0%/min) | B (percent API formation 25% to 50%) | c (API formation rate 1.0-1.5%/min)
CS(=O)(=O)c1cccc(C[C@H](NC(=O)c2c(Cl)cc3c(c2Cl)CCN(C(=O)c2ccc4ccoc4c2)C3)C(=O)OCCOC(=O)CCCC[C@@H]2CCSS2)c1 [Compound 34] | A (percent active pharmaceutical ingredient (API) formation <25%) | a (API formation rate <0.5%/min) | A (percent active pharmaceutical ingredient (API) formation <25%) | a (API formation rate <0.5%/min)
CS(=O)(=O)c1cccc(C[C@H](NC(=O)c2c(Cl)cc3c(c2Cl)CCN(C(=O)c2ccc4ccoc4c2)C3)C(=O)OCCCOC(=O)CCCC[C@@H]2CCSS2)c1 [Compound 35] | A (percent active pharmaceutical ingredient (API) formation <25%) | a (API formation rate <0.5%/min) | A (percent active pharmaceutical ingredient (API) formation <25%) | a (API formation rate <0.5%/min)
CS(=O)(=O)c1cccc(C[C@H](NC(=O)c2c(Cl)cc3c(c2Cl)CCN(C(=O)c2ccc4ccoc4c2)C3)C(=O)OCOC(=O)CCCC[C@@H]2CCSS2)c1 [Compound 36] | A (percent active pharmaceutical ingredient (API) formation <25%) | a (API formation rate <0.5%/min) | B (percent API formation 25% to 50%) | b (API formation rate 0.5-1.0%/min)
CCOC(=O)CCC(=O)OC(C)OC(=O)[C@H](Cc1cccc(S(C)(=O)=O)c1)NC(=O)c1c(Cl)cc2c(c1Cl)CCN(C(=O)c1ccc3ccoc3c1)C2 (stereo partly drawn) [Compound 37] | C (percent API formation 51% to 75%) | c (API formation rate 1.0-1.5%/min) | D (percent API formation >75%) | c (API formation rate 1.0-1.5%/min)
CC(OC(=O)OCCO)OC(=O)[C@H](Cc1cccc(S(C)(=O)=O)c1)NC(=O)c1c(Cl)cc2c(c1Cl)CCN(C(=O)c1ccc3ccoc3c1)C2 (stereo partly drawn) [Compound 42] | C (percent API formation 51% to 75%) | d (API formation rate >1.5%/min) | C (percent API formation 51% to 75%) | d (API formation rate >1.5%/min)
CC(OC(=O)OCCCO)OC(=O)[C@H](Cc1cccc(S(C)(=O)=O)c1)NC(=O)c1c(Cl)cc2c(c1Cl)CCN(C(=O)c1ccc3ccoc3c1)C2 (stereo partly drawn) [Compound 43] | B (percent API formation 25% to 50%) | b (API formation rate 0.5-1.0%/min) | C (percent API formation 51% to 75%) | c (API formation rate 1.0-1.5%/min)
CC(=O)N[C@@H](CSSCC[C@@H](CCCCC(=O)OC(C)OC(=O)[C@H](Cc1cccc(S(C)(=O)=O)c1)NC(=O)c1c(Cl)cc2c(c1Cl)CCN(C(=O)c1ccc3ccoc3c1)C2)SSC[C@H](NC(C)=O)C(=O)O)C(=O)O (stereo partly drawn) [Compound 44] | A (percent active pharmaceutical ingredient (API) formation <25%) | a (API formation rate <0.5%/min) | A (percent active pharmaceutical ingredient (API) formation <25%) | a (API formation rate <0.5%/min)
CC(OC(=O)OCCOC(=O)CCCC[C@H]1CCSS1)OC(=O)[C@H](Cc1cccc(S(C)(=O)=O)c1)NC(=O)c1c(Cl)cc2c(c1Cl)CCN(C(=O)c1ccc3ccoc3c1)C2 (stereo partly drawn) [Compound 46] | A (percent active pharmaceutical ingredient (API) formation <25%) | a (API formation rate <0.5%/min) | A (percent active pharmaceutical ingredient (API) formation <25%) | a (API formation rate <0.5%/min)
CC(OC(=O)OCCCOC(=O)CCCC[C@@H]1CCSS1)OC(=O)[C@H](Cc1cccc(S(C)(=O)=O)c1)NC(=O)c1c(Cl)cc2c(c1Cl)CCN(C(=O)c1ccc3ccoc3c1)C2 (stereo partly drawn) [Compound 47] | A (percent active pharmaceutical ingredient (API) formation <25%) | a (API formation rate <0.5%/min) | A (percent active pharmaceutical ingredient (API) formation <25%) | a (API formation rate <0.5%/min)
